According to patent US10323051B2, “Methods for controlling depolymerization of polymer compositions” (RHODIA OPERATIONS, priority 2011, dated 2019):
Read-outs that look alike come from different tables or passages of the source.

Key:
[1] = Molecular weight determination of polymer in the presence of THPS by GPC with light scattering detection; format: physicochemical; conditions: for Mn / Mw / Polydispersity (Mw/Mn): 75 ppm THPS, 1% pol A, overnight at ambient temperature
[2] = Viscosity of THPS-(1%) polyacrylamide aqueous dispersion (OFITE viscometer, 300 rpm); format: physicochemical; conditions: for viscosity @300 rpm (shear rate 500 s-1) after 60 minutes / viscosity @300 rpm after 60 minutes: 1% polyacrylamide; for effect on depolymerization: polyacrylamide with THPS under aerobic conditions at acidic pH, inhibitor added; for viscosity @300 rpm after 60 minutes: no depolymerization inhibitor
[3] = guar or guar derivatives mixed with THPS at 10-1000 ppm
Protocol: The polymer(s) under investigation were weighed and dissolved in (deionized) DI water to attain a desired concentration (for example, 0.48% w/w guar, 1.0% w/w polyacrylamide). The solution was mixed thoroughly for 1 h to ensure that the polymer had fully or substantially dissolved and the polymer fully hydrated
The polymer solution as prepared above was placed in a 250 ml beaker. Viscosity was measured with an OFITE viscometer (model 900). Initial viscosity was recorded (300 rpm) (at 500 s^−1) and then an acetic acid/sodium acetate buffer added to achieve a total concentration in the polymer solution of 0.2% w/w. pH and viscosity were recorded and then the depolymerization inhibitor was added. THPS at the concentration being investigated was then added. Viscosity measurements were then made at various time intervals as recorded in the table of FIG. 1.

O=C1O[C@H]([C@@H](O)CO)C(O)=C1O [ascorbic acid]
Mn ([1]; 1 ppm ascorbic acid): 1,460,000 g/mol
Mw ([1]; 1 ppm ascorbic acid): 1,770,000 g/mol
Polydispersity (Mw/Mn) ([1]; 1 ppm ascorbic acid): 1.22
Mn ([1]; 10 ppm ascorbic acid): 1,480,000 g/mol
Mw ([1]; 10 ppm ascorbic acid): 1,840,000 g/mol
Polydispersity (Mw/Mn) ([1]; 10 ppm ascorbic acid): 1.25
Mn ([1]; 50 ppm ascorbic acid): 1,590,000 g/mol
Mw ([1]; 50 ppm ascorbic acid): 1,890,000 g/mol
Polydispersity (Mw/Mn) ([1]; 50 ppm ascorbic acid): 1.19
viscosity @300 rpm (shear rate 500 s-1) after 60 minutes ([2]; 75 ppm THPS with 100 ppm ascorbic acid (rerun), initial viscosity 27.5 cP): 25.9 cP
viscosity @300 rpm (shear rate 500 s-1) after 60 minutes ([2]; 75 ppm THPS with 200 ppm ascorbic acid, initial viscosity 27.5 cP): 24.5 cP
effect on depolymerization [2]: the depolymerization is controlled or stopped

Oc1ccc(O)cc1 [hydroquinone]
viscosity @300 rpm (shear rate 500 s-1) after 60 minutes ([2]; 75 ppm THPS with 25 ppm hydroquinone, initial viscosity 23.8 cP): 14.6 cP
viscosity @300 rpm (shear rate 500 s-1) after 60 minutes ([2]; 75 ppm THPS with 50 ppm hydroquinone, initial viscosity 25.1 cP): 17.1 cP
effect on depolymerization [2]: the depolymerization is controlled or stopped

tetrakis(hydroxymethyl)phosphonium sulfate [THPS, reference compound]
Mn ([1]; no inhibitor): 652,000 g/mol
Mw ([1]; no inhibitor): 812,000 g/mol
Polydispersity (Mw/Mn) ([1]; no inhibitor): 1.25
Mw of THPS/polymer solution without an inhibitor relative to Mw with an inhibitor ([1]; after being left overnight): approximately half
effect on viscosity and molecular weight [3]: reduction in viscosity of the application fluid along with a corresponding molecular weight reduction
viscosity @300 rpm after 60 minutes ([2]; 50 ppm THPS, initial viscosity 23.8 cP): 9.7 cP
viscosity @300 rpm after 60 minutes ([2]; 75 ppm THPS, initial viscosity 23.8 cP): 7.3 cP
viscosity @300 rpm after 60 minutes ([2]; 100 ppm THPS, initial viscosity 23.8 cP): 3.9 cP
viscosity @300 rpm after 60 minutes ([2]; 125 ppm THPS, initial viscosity 23.8 cP): 2 cP
effect on viscosity and molecular weight ([2]; polyacrylamide or polyacrylamide-co-acrylic acid solutions mixed with THPS at 50-1000 ppm): reduction in viscosity along with a corresponding molecular weight reduction
